Experimental data reported in patent US4178284A, “Octapeptides” (American Home Products Corporation, priority 1978, dated 1979).

Legend:
[1] = system: growth hormone and prolactin release; settings: rat; Dupont et al., Rivier et al.; cited from earlier work
analgesia [2] = settings: Tseng et al.; cited from earlier work
analgesia [3] = settings: Loh et al.; cited from earlier work
growth hormone release = assay: growth hormone release, serum concentration, procedure of Lien et al. Febs. Letters 88 208-210 (1978); assay type: in vivo; settings: 2 milligrams per kilogram; control 55±8 ng/ml; p<0.05
Experimental: Illustrative of the growth hormone releasing ability of the compounds of this invention is the activity of des-(66-88)-β-endorphin, representative of the other compounds, which at 2 milligrams per kilogram caused growth hormone release to result in a serum concentration of 380±124 ng/ml. as related to the control concentration of 55±8 ng/ml. at a confidence level of p<0.05, following the procedure of Lien et al. Febs. Letters 88 208-210 (1978).

analgesia [4] = assay: analgesia on intracerebroventricular administration; assay type: in vivo

Substance | growth hormone release stimulation [1] | prolactin release stimulation [1] | analgesic activity by intravenous injection (analgesia [2]) | analgesic activity by intracerebral administration (analgesia [3]) | growth hormone serum concentration (growth hormone release) | intracerebroventricular analgesic activity (analgesia [4])
H-Tyr-Gly-Gly-Phe-Met-Thr-Ser-Glu-Lys-Ser-Gln-Thr-Pro-Leu-Val-Thr-Leu-Phe-Lys-Asn-Ala-Ile-Ile-Lys-Asn-Ala-His-Lys-Lys-Gly-Gln-OH (H-YGGFMTSEKSQTPLVTLFKNAIIKNAHKKGQ-OH) [β-Endorphin, naturally occurring peptide isolated by Bradbury et al. and Li et al] | growth hormone and prolactin release stimulation | growth hormone and prolactin release stimulation | potent analgesic activity | potent analgesic activity | – | –
L-Tyrosyl-glycyl-glycyl-L-phenylalanyl-L-methionyl-L-lysyl-glycyl-L-glutamine diacetate [des-(66-88)-β-endorphin] | – | – | – | – | 380 ± 124 ng/mL | intracerebroventricular analgesic agents
